Measurements: patent publication US7556938B1, “Nucleic acids encoding potassium channel interactors” (Millennium Pharmaceuticals, Inc., priority 1998, dated 2009)

What was measured:
[1] = target: T1, Kv4.2/KChIP1 (Rattus norvegicus, UniProt Q63881); experiment: AA modulation of Kv4.2/KChIP1 current in CHO cells; assay type: cell-based; conditions: Kv4.2/KChIP1, 10 μM AA
T1 construct: expressed in transfected cells; host or cells: CHO cells
T1 sequence (Q63881 1-630): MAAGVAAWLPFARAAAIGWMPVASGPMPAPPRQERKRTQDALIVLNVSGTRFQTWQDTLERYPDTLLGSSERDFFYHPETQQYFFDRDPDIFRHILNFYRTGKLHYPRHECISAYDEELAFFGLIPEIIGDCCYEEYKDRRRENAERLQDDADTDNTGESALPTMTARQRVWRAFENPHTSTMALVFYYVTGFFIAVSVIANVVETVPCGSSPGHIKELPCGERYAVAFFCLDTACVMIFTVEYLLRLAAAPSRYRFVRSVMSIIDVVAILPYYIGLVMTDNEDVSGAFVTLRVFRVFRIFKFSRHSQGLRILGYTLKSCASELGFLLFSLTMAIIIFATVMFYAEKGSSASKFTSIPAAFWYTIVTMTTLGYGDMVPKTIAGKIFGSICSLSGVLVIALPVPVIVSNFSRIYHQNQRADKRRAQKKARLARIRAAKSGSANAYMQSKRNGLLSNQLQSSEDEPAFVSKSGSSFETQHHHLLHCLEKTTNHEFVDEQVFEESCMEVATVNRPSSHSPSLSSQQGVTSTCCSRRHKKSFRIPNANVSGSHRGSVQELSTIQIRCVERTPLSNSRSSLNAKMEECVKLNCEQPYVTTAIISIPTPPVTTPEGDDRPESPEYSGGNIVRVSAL
T1 sequence (Q8R426 1-216 isoform Q8R426-2 partner): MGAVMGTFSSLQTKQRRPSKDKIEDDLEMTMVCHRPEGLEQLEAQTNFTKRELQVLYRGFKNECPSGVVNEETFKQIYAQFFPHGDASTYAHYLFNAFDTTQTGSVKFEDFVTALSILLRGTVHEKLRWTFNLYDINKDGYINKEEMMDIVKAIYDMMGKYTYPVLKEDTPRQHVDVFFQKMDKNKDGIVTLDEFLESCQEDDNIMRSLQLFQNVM
Description: HEK 293 and CHO cells were used for recordings 1-3 days after a transient transfection. Whole-cell currents were recorded from cells expressing GFP, identified by their green fluorescence. […] After Gigaseal and ruptured whole-cell configuration access, resistance was less than 10 MOhms. Whole-cell bath solutions were made from a 10× Hank's balanced salt solution (GibcoBRL) with the following final concentration (in mM): 138 NaCl, 5.4 KCl, 1.3 MgCl2, 1.3 CaCl2, 5.5 D-Glukos and 10 HEPES, pH 7.4. The intracellular electrode solution consisted of (in mM) 140 KCl, 10 HEPES, 10 EGTA, 0.5 MgCl2, pH 7.3. All chemicals were from Sigma (St. Louis, Mo.) or Fisher Scientific (Houston, Tex.). Membrane currents were recorded using a EPC9 patch-clamp amplifier (HEKA, Germany). Data were analyzed using Matlab (Natick, Ma), and leak subtracted if necessary. All experiments were done at room temperature. […]

[2] = tested on: Kv4.3; experiment: Fatty acid modulation of Kv4.3 current (Kv4.3 alone) in Xenopus oocytes; assay type: cell-based, rat
Description: Frogs underwent no more than two surgeries and surgeries were performed by well established techniques. Frogs were anesthetized with ice. Total cRNA (1-10 ng) was injected into stage IV Xenopus oocytes that were harvested the previous day. The Xenopus oocytes were incubated in ND96 containing (in mM) 96 NaCl, 2 KCl, 1.8 CaCl2, 1 MgCl2, 5 HEPES, pH 7.6, plus (Gentamycin 50 μg/ml) at 18° C. Xenopus oocytes were studied 3-7 days after injection. The two-electrode voltage-clamp recordings were performed in ND96 solution using a TURBO TEC 03 Clamp Amplifier (ALA Scientific Instruments, Westbury, N.Y.). Both electrodes were filled with 3 M KCl and had electrode resistances ranging from 0.2-1 MOhm. The current signals were filtered at 1000 Hz before transferred on a PC (Gateway, Calif.) using the PULSE software (HEKA, Germany). In this Example, the hypothesis that […] were the missing auxiliary subunits that accounted for the above kinetic discrepancy was investigated by expressing Kv4 alone or together with […] in both CHO cells and Xenopus oocytes, and measuring their inactivation time constants (using art known techniques as described in, for example, An et al. (2000) Nature 403:553-6; Keros, S. and […]. Neuroscience 17: 3476-87; and Villarroel, A. and […]. Neuroscience 16:2522-32). The effects of different concentrations of arachidonic acid on Kv4/KChIP current was studied in Xenopus oocytes. Because the physiological concentrations of arachidonic acid are often under 10 μM (Needleman, et al., 1986 Annu Rev Biochem 55:69-102; Anderson and Welsh, 1990, Proc Natl Acad Sci USA 87:7334-8; Meves, 1994, Prog Neurobiol 43:175-86), arachidonic acid was tested in the 1-10 μM range. […] Further, the slope of amplitude reduction as a function of increasing concentrations was very similar with or without the presence of […]. […] Villarroel and Schwarz, (1996) J.

[3] = tested on: Kv4 α subunits; conditions: in oocytes; Villarroel and Schwarz (1996); read-out: IC50 of arachidonic acid on Kv4 α subunits; cited from earlier work

Peak amplitude (pA ± SEM) [1]: 2827 ± 496 pA | Inactivation time constant (ms ± SEM) ([1]; listed as AA): 37 ± 3 ms
Structure (SMILES): CCCCC/C=C\C/C=C\C/C=C\C/C=C\CCCC(=O)O [arachidonic acid]
Inactivation time constant (ms ± SEM) ([2]; Kv4.3 alone, 10 μM AA): 66 ± 6 ms | Peak amplitude (μA ± SEM) ([2]; Kv4.3 alone, 10 μM AA): 13 ± 1 μA | block of Kv4.3 peak amplitude ([2]; Kv4.3 alone, 10 μM fatty acid, vs no-fatty acid control): inhibited significantly | block of Kv4.3 peak amplitude ([2]; Kv4.3 alone, 1-10 μM arachidonic acid): concentration-dependent block | effect on inactivation time constant ([2]; absence of KChIP1, 1-10 μM arachidonic acid): unchanged at all arachidonic acid concentrations tested | IC50 [3]: ~8 µM
